Test results: publication PMC9340768 (Journal of Medicinal Chemistry, 2022)
Starred links: 1 amine or outer side, 2 acyl side, 3 side chain; linkers in the order of their positions; H or OH if unused. Positions of bridges follow the written chain, without caps; N, C: chain ends. Non-standard residues stand in square brackets, D forms with d. Residues, ends and D or L forms follow the SMILES beside them. Chains are numbered I, II in the order given. TATA = O=C(CC[*:1])N1CN(C(=O)CC[*:2])CN(C(=O)CC[*:3])C1; X1 = O=C(CCc1cn(CCOCCOCCOCCOCCOCCC(=O)[*:2])nn1)[*:1]; 1Nal = N[C@@H](Cc1cccc2ccccc12)C(=O)O; Hyp = O=C(O)[C@@H]1C[C@@H](O)CN1; hArg = N=C(N)NCCCC[C@H](N)C(=O)O; tBuAla = CC(C)(C)C[C@H](N)C(=O)O; Nle = CCCC[C@H](N)C(=O)O

Assays:
CD137 = CD137 (Homo sapiens, UniProt Q07011+Q96NY8); assay: HT1376/CD137 reporter coculture assay; format: cell-based
Sequence of CD137 (Q07011 24-255): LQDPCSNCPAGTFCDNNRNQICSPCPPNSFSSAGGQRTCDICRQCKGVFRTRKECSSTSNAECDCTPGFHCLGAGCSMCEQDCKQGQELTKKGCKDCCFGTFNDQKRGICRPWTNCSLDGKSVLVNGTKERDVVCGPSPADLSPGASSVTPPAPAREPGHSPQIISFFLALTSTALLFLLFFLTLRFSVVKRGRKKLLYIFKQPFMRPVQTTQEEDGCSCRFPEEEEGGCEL
Sequence of CD137 (Q96NY8 32-510): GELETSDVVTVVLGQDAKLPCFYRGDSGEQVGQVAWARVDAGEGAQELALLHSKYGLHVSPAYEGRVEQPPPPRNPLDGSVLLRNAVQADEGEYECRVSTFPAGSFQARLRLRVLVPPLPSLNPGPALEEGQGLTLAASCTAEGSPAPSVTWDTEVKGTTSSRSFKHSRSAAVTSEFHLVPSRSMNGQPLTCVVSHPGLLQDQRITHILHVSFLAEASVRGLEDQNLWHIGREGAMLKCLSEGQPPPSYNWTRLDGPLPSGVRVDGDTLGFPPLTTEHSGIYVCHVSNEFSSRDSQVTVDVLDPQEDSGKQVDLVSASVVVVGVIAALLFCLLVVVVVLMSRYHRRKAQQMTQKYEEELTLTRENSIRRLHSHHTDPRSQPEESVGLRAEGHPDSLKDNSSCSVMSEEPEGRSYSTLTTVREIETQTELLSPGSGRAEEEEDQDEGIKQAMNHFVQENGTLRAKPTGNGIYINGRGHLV

[1] = Pharmacokinetics in Sprague-Dawley rats; details: rat, in vivo, iv, 2 mg/kg

In the case of `CCCC[C@@H]1NC(=O)[C@H](Cc2ccc(O)cc2)NC(=O)[C@@H]2CCCN2C(=O)[C@H](CC(=O)O)NC(=O)[C@H](C)NC(=O)[C@H](Cc2ccccc2)NC(=O)[C@@H]2CSCCC(=O)N3CN(CN(C3)C(=O)CCSC[C@@H](C(=O)N[C@@H](C)C(N)=O)NC1=O)C(=O)CCSC[C@H](NC(C)=O)C(=O)N[C@@H](CC(C)(C)C)C(=O)N1CCC[C@H]1C(=O)N[C@@H](CCCCNC(=O)CCc1cn(CCOCCOCCOCCOCCOCCC(=O)N[C@H]3CSCCC(=O)N4CN5CN(C4)C(=O)CCSC[C@H](NC(=O)[C@@H](CC(=O)O)NC(=O)[C@H](Cc4cccc6ccccc46)NC(=O)[C@@H]4CCCN4C3=O)C(=O)N[C@@H](CCSC)C(=O)N[C@@H](CCCCNC(=N)N)C(=O)N[C@@H](CC(=O)O)C(=O)N[C@@H](Cc3c[nH]c4ccccc34)C(=O)N[C@@H](CO)C(=O)N[C@@H]([C@@H](C)O)C(=O)N3CCC[C@H]3C(=O)N3C[C@H](O)C[C@H]3C(=O)N[C@@H](Cc3c[nH]c4ccccc34)C(=O)N[C@H](C(N)=O)CSCCC5=O)nn1)C(=O)N[C@H](C)C(=O)N1CCC[C@H]1C(=O)N[C@@H](Cc1ccc(O)cc1)C(=O)N2` [BCY10571], the “EC50 relative to similar compounds” value (CD137; vs dLys4 (BCY10572) or C-terminal Dap (BCY10573) attachment) is reported as “two- to threefold weaker”.
`CCCC[C@@H]1NC(=O)[C@H](Cc2ccc(O)cc2)NC(=O)[C@@H]2CCCN2C(=O)[C@H](CC(=O)O)NC(=O)[C@H](C)NC(=O)[C@H](Cc2ccccc2)NC(=O)[C@@H]2CSCCC(=O)N3CN(CN(C3)C(=O)CCSC[C@@H](C(=O)N[C@@H](C)C(N)=O)NC1=O)C(=O)CCSC[C@H](NC(C)=O)C(=O)N[C@@H](CC(C)(C)C)C(=O)N1CCC[C@H]1C(=O)N[C@@H](CCC(=O)O)C(=O)N[C@H](CCCCNC(=O)CCc1cn(CCOCCOCCOCCOCCOCCOCCOCCOCCOCCOCCNC(=O)CCOCCN(CCOCCC(=O)NCCOCCOCCOCCOCCOCCOCCOCCOCCOCCOCCn3cc(CCC(=O)NCCCC[C@H]4NC(=O)[C@H](CCC(=O)O)NC(=O)[C@@H]5CCCN5C(=O)[C@H](CC(C)(C)C)NC(=O)[C@@H](NC(C)=O)CSCCC(=O)N5CN6CN(C5)C(=O)CCSC[C@H](NC(=O)[C@H](Cc5ccc(O)cc5)NC(=O)[C@@H]5CCCN5C4=O)C(=O)N[C@@H](Cc4ccccc4)C(=O)N[C@@H](C)C(=O)N[C@@H](CC(=O)O)C(=O)N4CCC[C@H]4C(=O)N[C@@H](Cc4ccc(O)cc4)C(=O)N[C@@H](CCCC)C(=O)N[C@H](C(=O)N[C@@H](C)C(N)=O)CSCCC6=O)nn3)CCOCCC(=O)NCCOCCOCCOCCOCCOCCOCCOCCOCCOCCOCCn3cc(CCC(=O)N[C@H]4CSCCC(=O)N5CN6CN(C5)C(=O)CCSC[C@H](NC(=O)[C@@H](CC(=O)O)NC(=O)[C@H](Cc5cccc7ccccc57)NC(=O)[C@@H]5CCCN5C4=O)C(=O)N[C@@H](CCSC)C(=O)N[C@@H](CCCCNC(=N)N)C(=O)N[C@@H](CC(=O)O)C(=O)N[C@@H](Cc4c[nH]c5ccccc45)C(=O)N[C@@H](CO)C(=O)N[C@@H]([C@@H](C)O)C(=O)N4CCC[C@H]4C(=O)N4C[C@H](O)C[C@H]4C(=O)N[C@@H](Cc4c[nH]c5ccccc45)C(=O)N[C@H](C(N)=O)CSCCC6=O)nn3)nn1)C(=O)N1CCC[C@H]1C(=O)N[C@@H](Cc1ccc(O)cc1)C(=O)N2` [BCY11027] gave a half-life [1] of 35.4 min.
In the case of `CCCC[C@@H]1NC(=O)[C@H](Cc2ccc(O)cc2)NC(=O)[C@@H]2CCCN2C(=O)[C@H](CC(=O)O)NC(=O)[C@H](C)NC(=O)[C@H](Cc2ccccc2)NC(=O)[C@@H]2CSCCC(=O)N3CN(CN(C3)C(=O)CCSC[C@@H](C(=O)N[C@@H](CNC(=O)CCc3cn(CC(=O)N[C@H]4CSCCC(=O)N5CN6CN(C5)C(=O)CCSC[C@H](NC(=O)[C@@H](CC(=O)O)NC(=O)[C@H](Cc5cccc7ccccc57)NC(=O)[C@@H]5CCCN5C4=O)C(=O)N[C@@H](CCSC)C(=O)N[C@@H](CCCCNC(=N)N)C(=O)N[C@@H](CC(=O)O)C(=O)N[C@@H](Cc4c[nH]c5ccccc45)C(=O)N[C@@H](CO)C(=O)N[C@@H]([C@@H](C)O)C(=O)N4CCC[C@H]4C(=O)N4C[C@H](O)C[C@H]4C(=O)N[C@@H](Cc4c[nH]c5ccccc45)C(=O)N[C@H](C(N)=O)CSCCC6=O)nn3)C(N)=O)NC1=O)C(=O)CCSC[C@H](NC(C)=O)C(=O)N[C@@H](CC(C)(C)C)C(=O)N1CCC[C@H]1C(=O)N[C@@H](CCC(=O)O)C(=O)N[C@H](C)C(=O)N1CCC[C@H]1C(=O)N[C@@H](Cc1ccc(O)cc1)C(=O)N2` [BCY11375], the “improvement of EC50” value (CD137; CD137 affinity improved from BCY9399 to BCY11375) is reported as 3.6 fold.
With `CCCC[C@@H]1NC(=O)[C@H](Cc2ccc(O)cc2)NC(=O)[C@@H]2CCCN2C(=O)[C@H](CC(=O)O)NC(=O)[C@H](C)NC(=O)[C@H](Cc2ccccc2)NC(=O)[C@@H]2CSCCC(=O)N3CN(CN(C3)C(=O)CCSC[C@H](NC(C)=O)C(=O)N[C@@H](CC(C)(C)C)C(=O)N[C@@H](CCC(=O)O)C(=O)N[C@@H](CCC(=O)O)C(=O)N[C@H](CCCCNC(=O)CCc3cn(CCOCCOCCOCCOCCOCCC(=O)N[C@H]4CSCCC(=O)N5CN6CN(C5)C(=O)CCSC[C@H](NC(=O)[C@@H](CC(=O)O)NC(=O)[C@H](Cc5cccc7ccccc57)NC(=O)[C@@H]5CCCN5C4=O)C(=O)N[C@@H](CCSC)C(=O)N[C@@H](CCCCNC(=N)N)C(=O)N[C@@H](CC(=O)O)C(=O)N[C@@H](Cc4c[nH]c5ccccc45)C(=O)N[C@@H](CO)C(=O)N[C@@H]([C@@H](C)O)C(=O)N4CCC[C@H]4C(=O)N4C[C@H](O)C[C@H]4C(=O)N[C@@H](Cc4c[nH]c5ccccc45)C(=O)N[C@H](C(N)=O)CSCCC6=O)nn3)C(=O)N3CCC[C@H]3C(=O)N[C@@H](Cc3ccc(O)cc3)C(=O)N2)C(=O)CCSC[C@@H](C(N)=O)NC1=O` [BCY12377] the clearance ([1]; CL (mL/min/kg), SD rats, 2 mg/kg IV bolus) was 7.8 mL/min/kg.
In the case of `CCCC[C@@H]1NC(=O)[C@H](Cc2ccc(O)cc2)NC(=O)[C@@H]2CCCN2C(=O)[C@H](CC(=O)O)NC(=O)[C@H](C)NC(=O)[C@H](Cc2ccccc2)NC(=O)[C@@H]2CSCCC(=O)N3CN(CN(C3)C(=O)CCSC[C@@H](C(=O)N[C@@H](C)C(N)=O)NC1=O)C(=O)CCSC[C@H](NC(C)=O)C(=O)N[C@@H](CC(C)(C)C)C(=O)N1CCC[C@H]1C(=O)N[C@@H](CCC(=O)O)C(=O)N[C@H](CCCCNC(=O)CCc1cn(CCOCCOCCOCCOCCOCCC(=O)NCCCC[C@H]3NC(=O)[C@H](Cc4cccc5ccccc45)NC(=O)[C@@H]4CCCN4C(=O)[C@@H](NC(C)=O)CSCCC(=O)N4CN5CN(C4)C(=O)CCSC[C@H](NC3=O)C(=O)N[C@@H](CCSC)C(=O)N[C@@H](CCCCNC(=N)N)C(=O)N[C@@H](Cc3c[nH]cn3)C(=O)N[C@@H](Cc3c[nH]c4ccccc34)C(=O)N[C@@H](CO)C(=O)N[C@@H]([C@@H](C)O)C(=O)N3CCC[C@H]3C(=O)N3C[C@H](O)C[C@H]3C(=O)N[C@@H](Cc3c[nH]c4ccccc34)C(=O)N[C@H](C(N)=O)CSCCC5=O)nn1)C(=O)N1CCC[C@H]1C(=O)N[C@@H](Cc1ccc(O)cc1)C(=O)N2` [BCY12579] (I: Ac-C[tBuAla]PE[dK]PYCFADPY[Nle]CA-NH2 / II: Ac-CP[1Nal][dK]CM[hArg]HWSTP[Hyp]WC-NH2; linker I:1-I:8-I:15, II:1-II:5-II:15 via TATA; linker I:5-II:4 via X1), the “improvement of EC50” value (CD137; Nectin-4 affinity improved from BCY11858 to BCY12579) is reported as 12 fold.
In the case of `CCCC[C@@H]1NC(=O)[C@H](Cc2ccc(O)cc2)NC(=O)[C@@H]2CCCN2C(=O)[C@H](CC(=O)O)NC(=O)[C@H](C)NC(=O)[C@H](Cc2ccccc2)NC(=O)[C@@H]2CSCCC(=O)N3CN(CN(C3)C(=O)CCSC[C@@H](C(=O)N[C@@H](C)C(N)=O)NC1=O)C(=O)CCSC[C@H](NC(C)=O)C(=O)N[C@@H](CC(C)(C)C)C(=O)N1CCC[C@H]1C(=O)N[C@@H](CCC(=O)O)C(=O)N[C@H](CCCCNC(=O)CCc1cn(CCOCCOCCOCCN(CCOCCOCCOCCn3cc(CCC(=O)NCCCC[C@H]4NC(=O)[C@H](CCC(=O)O)NC(=O)[C@@H]5CCCN5C(=O)[C@H](CC(C)(C)C)NC(=O)[C@@H](NC(C)=O)CSCCC(=O)N5CN6CN(C5)C(=O)CCSC[C@H](NC(=O)[C@H](Cc5ccc(O)cc5)NC(=O)[C@@H]5CCCN5C4=O)C(=O)N[C@@H](Cc4ccccc4)C(=O)N[C@@H](C)C(=O)N[C@@H](CC(=O)O)C(=O)N4CCC[C@H]4C(=O)N[C@@H](Cc4ccc(O)cc4)C(=O)N[C@@H](CCCC)C(=O)N[C@H](C(=O)N[C@@H](C)C(N)=O)CSCCC6=O)nn3)CCOCCOCCOCC(=O)NCCCNC(=O)Cn3cc(CCC(=O)NCCCNC(=O)COCCOCCOCCN(CCOCCOCCOCCn4cc(CCC(=O)NCCC(=O)N[C@H]5CSCCC(=O)N6CN7CN(C6)C(=O)CCSC[C@H](NC(=O)[C@@H](CC(=O)O)NC(=O)[C@H](Cc6cccc8ccccc68)NC(=O)[C@@H]6CCCN6C5=O)C(=O)N[C@@H](CCSC)C(=O)N[C@@H](CCCCNC(=N)N)C(=O)N[C@@H](CC(=O)O)C(=O)N[C@@H](Cc5c[nH]c6ccccc56)C(=O)N[C@@H](CO)C(=O)N[C@@H]([C@@H](C)O)C(=O)N5CCC[C@H]5C(=O)N5C[C@H](O)C[C@H]5C(=O)N[C@@H](Cc5c[nH]c6ccccc56)C(=O)N[C@H](C(N)=O)CSCCC7=O)nn4)CCOCCOCCOCCn4cc(CCC(=O)NCCC(=O)N[C@H]5CSCCC(=O)N6CN7CN(C6)C(=O)CCSC[C@H](NC(=O)[C@@H](CC(=O)O)NC(=O)[C@H](Cc6cccc8ccccc68)NC(=O)[C@@H]6CCCN6C5=O)C(=O)N[C@@H](CCSC)C(=O)N[C@@H](CCCCNC(=N)N)C(=O)N[C@@H](CC(=O)O)C(=O)N[C@@H](Cc5c[nH]c6ccccc56)C(=O)N[C@@H](CO)C(=O)N[C@@H]([C@@H](C)O)C(=O)N5CCC[C@H]5C(=O)N5C[C@H](O)C[C@H]5C(=O)N[C@@H](Cc5c[nH]c6ccccc56)C(=O)N[C@H](C(N)=O)CSCCC7=O)nn4)nn3)nn1)C(=O)N1CCC[C@H]1C(=O)N[C@@H](Cc1ccc(O)cc1)C(=O)N2` [BCY12970], the “fold more potent than the 1:2 format” value (CD137; 2:2 molecule vs 1:2 format) is reported as 2.9 fold.
